Test results reported in US6451787B1, “Remedies for ocular diseases” (Cephalon, Inc., priority 1998, dated 2002).

Legend:
[1] = test system: retinal gangliocyte in a retinal ischemia—reperfusion model; test: Effects on the retina subjected to the ischemia—reperfusion treatment; type: in vivo, rat
Description: 1. Effects on the Retina Subjected to the Ischemia—Reperfusion Treatment
It has been reported that brain-derived neurotrophic factor (it is referred to as BDNF hereinafter) which is a neurotrophic factor has a protective effect against gangliocytic death caused by retinal ischemia (Invest. Ophthalmol. Vis. Sci. 35, 907-915 (1994)).
Thus, according to the method described in this reference, the effects of the compounds on retinal gangliocyte in a retinal ischemia—reperfusion model were studied.
Under anesthesia with a mixture of Ketalar and Celactal, the conjunctiva of a male Spraugue—Dawley rat (300-450 g) was dissected to expose the optic nerve and then the retina was subjected to an ischemic state by ligating the optic nerve with a suture. Sixty minutes after the ischemia, the suture was taken out to reperfuse the retina with the blood by allowing the circulation. Seven days after the reperfusion, the eye bulb was enucleated and then immobilized with paraformaldehyde, and after embedding it in paraffin, the transverse paraffin sections of the eye bulb with 3 μm of the thickness were prepared by slicing the eye bulb beginning from the point of exposure of the optic nerve with 60 μm of each interval. These sections were stained with hematoxylin—eosin and photographs were taken for the section in which the retinal part at the distance of approximately 1 mm from the optic disc to either direction, left or right, is included to measure the number of the cells contained in the layer of gangliocyte.
Here, the compound was dissolved into polyethylene glycol 660 hydroxystearate and injected in the volume of 1 μl into the hyaloid body two day before the creation of the ischemic state.

[2] = test system: retinal disturbance induced by injecting kainic acid into the hyaloid body; test: Effects on the retina from the eye treated with kainic acid; type: in vivo, rat; settings: for Thickness of the inner plexiform layer: injected two days before, at the same time as and one day after kainic acid, Normal 47.5, Control 20.8; for Thickness of the inner plexiform layer / Number of the cells in the layer of gangliocyte: 7 days after; for Number of the cells in the layer of gangliocyte: Normal 64.2, Control 36.8
Procedure: 2. Effects on the Retina From the Eye Treated with Kainic Acid
It has been reported that when kainic acid, that is a neurotoxin, is injected into the hyaloid body, the inner plexiform layer becomes thinner because of synaptic collapse caused by cell death of amacrine cell or the number of the cells contained in the layer of gangliocyte decreases because of apoptosis happening to those cells (Neurochem. Int., 31, 251-260 (1997)).
Then, according to the method described in this reference, the effects of the compound on the retinal disturbance induced by injecting kainic acid into the hyaloid body were studied.
To a male Sprague—Dawley rat (180-250 g) under anesthesia with pentobarbital, a solution of kainic acid in polyethylene glycol 660 hydroxystearate (1 mmol/L) was injected into the hyaloid bodies in both of the eyes in the amount of 5 μl under observation with a stereoscopic microscopy. […]. These sections were stained with hematoxylin—eosin and photographs were taken for the sections in which the retinal part at the distance of approximately 1 mm from the optic disc to either direction, left or right, is included to measure the thickness of the inner plexiform layer and the number of the cells contained in the layer of gangliocyte.
The compound was dissolved into polyethylene glycol 660 hydroxystearate and then injected into the hyaloid bodies two days before, at the same time as and one day after the kainic acid treatment in the volume of 5 μl each.

Compound: CCSCc1ccc2c(c1)c1c3c(c4c5cc(CSCC)ccc5n5c4c1n2[C@H]1C[C@](O)(C(=O)OC)[C@]5(C)O1)CNC3=O [Compound A]
- Number of the cells in the layer of gangliocyte recovered to the level of that for Normal Group (1) ([1]; 3 μg injected, ischemia—reperfusion treatment): 70.9%
- Number of the cells in the layer of gangliocyte ([1]; 3 μg/eye injected into the hyaloid body two days before 60 min ischemia, 7 days after reperfusion, Normal Group 38.8, Control Group 20.5): 27.5 cells/mm
- Protective effect on neurocyte disturbance of the retina caused by the ischemia—reperfusion treatment ([1]; conclusion in words): superior protective effect
- Number of the cells in the layer of gangliocyte recovered to the level of that for Normal group (2) ([2]; 3 μg injected, kainic acid treatment): 80.7%
- Thickness of the inner plexiform layer ([2]; 3 μg/eye): 28.8 μm
- Number of the cells in the layer of gangliocyte ([2]; 3 μg/eye, kainic acid treatment): 51.8 cells/mm
- Thickness of the inner plexiform layer ([2]; 30 μg/eye [sic]): 23.8 μm
- Number of the cells in the layer of gangliocyte ([2]; 30 μg/eye [sic], kainic acid treatment): 42.3 cells/mm
- Protective effect against neurocyte disturbance of the retina caused by the kainic acid treatment ([2]; conclusion in words): superior protective effect
